Test system: Human skin fibroblasts
Assay: Ascorbic acid colorimetric assay in human skin fibroblasts, with or without alloxan-induced oxidative stress
Type: cell-based
Procedure: This example provides methods and results from studies evaluating the effect of ergothioneine on vitamin C in human fibroblast cells. Human skin fibroblasts were cultured for 18 hours in T-25 flasks. Cells were incubated with 1) control solution, 2) magnesium ascorbyl phosphate, or 3) magnesium ascorbyl phosphate+ergothioneine (1:100). Cells in each group were then treated for 6 hours with a) control solution or b) 500 μM alloxan to induce oxidative stress. All samples were assayed for ascorbic acid with an ascorbic acid colorimetric assay (Biovision catalog no. K671). Results are provided in the table below, where ascorbic acid content (nmol) in human skin fibroblasts per one million cells is reported.

[1] = 0.158% of test solution, no alloxan
[2] = 0.158% of test solution, with 500 uM Alloxan (6 hours, oxidative stress)
[3] = 0.5% of test solution, no alloxan
[4] = 0.5% of test solution, with 500 uM Alloxan (6 hours, oxidative stress)
[5] = 1.58% of test solution, no alloxan
[6] = 1.58% of test solution, with 500 uM Alloxan (6 hours, oxidative stress)
[7] = 5% of test solution, no alloxan
[8] = 5% of test solution, with 500 uM Alloxan (6 hours, oxidative stress)

O=C1O[C@H]([C@@H](O)CO)C([O-])=C1OP(=O)([O-])[O-].O=C1O[C@H]([C@@H](O)CO)C([O-])=C1OP(=O)([O-])[O-].[Mg+2].[Mg+2].[Mg+2] [MAP solution, magnesium ascorbyl phosphate]
ascorbic acid content in human skin fibroblasts per one million cells, Ave [1]: 10.14 nmol
ascorbic acid content in human skin fibroblasts per one million cells, Sample A [1]: 9.94 nmol
ascorbic acid content in human skin fibroblasts per one million cells, Sample B [1]: 10.34 nmol
ascorbic acid content in human skin fibroblasts per one million cells, Ave [2]: 4.93 nmol
ascorbic acid content in human skin fibroblasts per one million cells, Sample A [2]: 4.84 nmol
ascorbic acid content in human skin fibroblasts per one million cells, Sample B [2]: 5.01 nmol
ascorbic acid content in human skin fibroblasts per one million cells, Ave [3]: 21.51 nmol
ascorbic acid content in human skin fibroblasts per one million cells, Sample A [3]: 21.68 nmol
ascorbic acid content in human skin fibroblasts per one million cells, Sample B [3]: 21.33 nmol
ascorbic acid content in human skin fibroblasts per one million cells, Ave [4]: 9.77 nmol
ascorbic acid content in human skin fibroblasts per one million cells, Sample A [4]: 9.54 nmol
ascorbic acid content in human skin fibroblasts per one million cells, Sample B [4]: 9.99 nmol
ascorbic acid content in human skin fibroblasts per one million cells, Ave [5]: 49.89 nmol
ascorbic acid content in human skin fibroblasts per one million cells, Sample A [5]: 49.23 nmol
ascorbic acid content in human skin fibroblasts per one million cells, Sample B [5]: 50.54 nmol
ascorbic acid content in human skin fibroblasts per one million cells, Ave [6]: 12.17 nmol
ascorbic acid content in human skin fibroblasts per one million cells, Sample A [6]: 11.88 nmol
ascorbic acid content in human skin fibroblasts per one million cells, Sample B [6]: 12.46 nmol
ascorbic acid content in human skin fibroblasts per one million cells, Ave [7]: 50.77 nmol
ascorbic acid content in human skin fibroblasts per one million cells, Sample A [7]: 50.20 nmol
ascorbic acid content in human skin fibroblasts per one million cells, Sample B [7]: 51.35 nmol
ascorbic acid content in human skin fibroblasts per one million cells, Ave [8]: 13.37 nmol
ascorbic acid content in human skin fibroblasts per one million cells, Sample A [8]: 13.37 nmol
ascorbic acid content in human skin fibroblasts per one million cells, Sample B [8]: 13.37 nmol

C[N+](C)(C)[C@@H](Cc1c[nH]c(=S)[nH]1)C(=O)[O-] [ergothioneine]
increase of ascorbic acid levels following oxidative stress (1:100 ergothioneine (EGT) to magnesium ascorbyl phosphate (MAP), following oxidative stress): up to 300%
ascorbic acid absorbed by the fibroblast cells with versus without ergothioneine (FIG. 1, no oxidative stress): equally absorbed
amount of ascorbic acid in fibroblast cells following oxidative stress in the presence of ergothioneine (FIG. 3, following oxidative stress): synergistically increased
boost of vitamin C levels in a cell (synergistic amount of ergothioneine, summary of the examples): three-fold or more
